This passage reports LC50 results from patent US5493024A, “3,4,N-trisubstituted-4,5-dihydro-1H-pyrazole-1-carboxamides and their use as insectioides” (DowElanco, priority 1993, dated 1996).

The structures appear in SMILES notation. ≈ marks a conversion by molar mass, not a printed value.

As a reminder, the LC50 is the concentration that kills 50% of the test population.

Assay [1] has as its system tobacco budworm. The experiment in a line: Effect on tobacco budworm, contact and ingestion test (treated cotton leaf discs). It counts as in vivo, H. virescens (tobacco budworm). As to conditions: Heliothis virescens, foliar, 120 h; second-instar larvae, sprayed cotton leaf discs, 5 days at 25° C; read-out: TOBACCO BUDWORM Contact and Ingestion Test LC50, ppm. Here is the method: (§1) Effect on Tobacco Budworm and Beet Armyworm by Leaf Ingestion and/or Contact.
(§2) Stock solutions of the compounds to be tested having a known concentration were prepared by dissolving weighed amounts in a 90:10 mixture of high-purity acetone and ethanol and these solutions were diluted with distilled water (containing 0.05 percent by weight Tween 20™ surfactant) to obtain the spray solutions of known concentration employed. Greenhouse-grown cotton leaves of uniform age were cut into 2.5 cm diameter discs and one disc was placed in the bottom of each of a number of 30 mL plastic cups. The cups were then sprayed by means of a track sprayer applying 0.055 mL of spray solution per cup. The leaf discs were allowed to dry and then a single second-instar H. virescens (tobacco budworm) or S. exigua (beet armyworm) larva was added to each cup and each cup was capped with a perforated plastic lid. Ten cups were prepared for each insect species and each application rate and five applications rates were usually run. Treated cups were stored for 5 days at 25° C. and were then graded for mortality. Untreated controls and positive controls (cypermethrin) were run simultaneously. The amount of test chemical required to kill half of the larvae (LD50) was calculated.

For assay [2], the system named is beet armyworm. The experiment in a line: Effect on beet armyworm, contact and ingestion test (treated cotton leaf discs). Type of assay: in vivo, S. exigua (beet armyworm). As to conditions: Spodoptera exigua, foliar, 120 h; second-instar larvae, sprayed cotton leaf discs, 5 days at 25° C; read-out: BEET ARMYWORM Contact and Ingestion Test LC50, ppm. Here is the method:
as §1, §2

Consider `CSc1ccc(NC(=O)N2CC(c3ccc(C(F)(F)F)cn3)C(c3ccc(Cl)cc3)=N2)cc1` (stereo not drawn) [Compound A, 3-(4-Chlorophenyl)-4,5-dihydro-N-(4-(methylthio)phenyl)-4-(5-trifluoromethyl-2-pyridinyl)-1H-pyrazole-1-carboxamide], for which the LC50 in assay [1] was above 400 µg/mL; in assay [2] it was 107 µg/mL (≈ 218 µM).

As to `O=C(Nc1ccc(OC(F)(F)F)cc1)N1CC(c2cncnc2)C(c2ccccc2)=N1` (stereo not drawn) [J, 4,5-Dihydro-3-phenyl-4-(5-pyrimidinyl),N-(4-trifluoromethoxyphenyl)-1H-pyrazole-1-carboxamide], the LC50 was 135 µg/mL (≈ 316 µM) in assay [1] and above 800 µg/mL in assay [2].

For the compound `O=C(Nc1ccc(OC(F)(F)F)cc1)N1CC(c2cnc3ccc(Cl)cc3c2)C(c2ccccc2)=N1` (stereo not drawn) [K, 4-(6-Chloro-3-quinolinyl)-4,5-dihydro-3-phenyl-N-(4-trifluoromethoxyphenyl)-1H-pyrazole-1-carboxamide], the figures for the median lethal concentration (LC50) in assay [1] and in assay [2] were 70.7 µg/mL (≈ 138 µM) and 29.7 µg/mL (≈ 58.1 µM), respectively.

`O=C(Nc1ccc(OC(F)(F)F)cc1)N1CC(c2ccc(C(F)(F)F)cn2)C(c2ccc(Cl)cc2)=N1` (stereo not drawn) [C, 3-(4-Chlorophenyl)-4,5-dihydro-N-(4-trifluoromethoxyphenyl)-4-(5-trifluoromethyl-2-pyridinyl)-1H-pyrazole-1-carboxamide]: the LC50 in assay [1] came to 9.1 µg/mL (≈ 17.2 µM); in assay [2] it was 7.9 µg/mL (≈ 14.9 µM).

Regarding `O=C(Nc1ccc(Cl)cc1)N1CC(c2cccc(F)n2)C(c2ccc(F)cc2)=N1` (stereo not drawn) [F, N-(4-Chlorophenyl)-4,5-dihydro-3-(4-fluorophenyl)-4-(6-fluoro-2-pyridinyl)-1H-pyrazole-1-carboxamide], the median lethal concentration (LC50) in assay [1] is 606 µg/mL (≈ 1470 µM); in assay [2] it was above 800 µg/mL.

With `O=C(Nc1ccc(OC(F)(F)F)cc1)N1CC(c2cnc(C(F)(F)F)nc2)C(c2ccc(F)cc2)=N1` (stereo not drawn) [W, 4,5-Dihydro-3-(4-fluorophenyl)-N-(4-trifluoromethoxyphenyl)-4-(2-trifluoromethyl-5-pyrimidinyl)-1-H-pyrazole-1-carboxamide], the results for the LC50 in assay [1] and in assay [2] were 6.1 µg/mL (≈ 11.9 µM) and 7.5 µg/mL (≈ 14.6 µM), respectively.

As for `O=C(Nc1ccc(OC(F)(F)F)cc1)N1CC(c2ccc3ccc(Cl)cc3n2)C(c2ccc(Cl)cc2)=N1` (stereo not drawn) [P, 3-(4-Chlorophenyl)-4-(7-chloro-2-quinolinyl)-4,5-dihydro-N-(4-trifluoromethoxyphenyl)-1H-pyrazole-1-carboxamide], the figures for the 50% lethal concentration (LC50) in assay [1] and in assay [2] were 64.8 µg/mL (≈ 119 µM) and 40.6 µg/mL (≈ 74.4 µM), respectively.

On to `O=C(Nc1ccc(OC(F)(F)F)cc1)N1CC(c2cncnc2)C(c2ccc(F)cc2)=N1` (stereo not drawn) [S, 4,5-Dihydro-3-(4-fluorophenyl)-4-(5-pyrimidinyl)-N-(4-trifluoromethoxyphenyl)-1H-pyrazole-1-carboxamide], for which the figures for the LC50 in assay [1] and in assay [2] were 50 µg/mL (≈ 112 µM) and 490 µg/mL (≈ 1100 µM), respectively.

On to `O=C(Nc1ccc(OC(F)(F)F)cc1)N1CC(c2cnc3cc(Cl)ccc3c2)C(c2ccccc2)=N1` (stereo not drawn) [Q, 4-(7-Chloro-3-quinolinyl)-4,5-dihydro-3-phenyl-N-(4-trifluoromethoxyphenyl)-1H-pyrazole-1-carboxamide], for which the 50% lethal concentration (LC50) in assay [1] amounted to 30.8 µg/mL (≈ 60.3 µM); in assay [2] it was 13.4 µg/mL (≈ 26.2 µM).

As for `O=C(Nc1ccc(OC(F)(F)F)cc1)N1CC(c2cccnc2)C(c2ccccc2)=N1` (stereo not drawn) [R, 4,5-Dihydro-3-phenyl-4-(3-pyridinyl)-N-(4-trifluoromethoxyphenyl)-1H-pyrazole-1-carboxamide], the median lethal concentration (LC50) is 186 µg/mL (≈ 436 µM) in assay [1] and above 400 µg/mL in assay [2].

Regarding `O=C(Nc1ccc(OC(F)(F)F)cc1)N1CC(c2cccc(F)n2)C(c2ccc(F)cc2)=N1` (stereo not drawn) [E, 4,5-Dihydro-3-(4-fluorophenyl)-4-(6-fluoro-2-pyridinyl)-N-(4-trifluoromethoxyphenyl)-1H-pyrazole-1-carboxamide], the median lethal concentration (LC50) in assay [1] was 70.7 µg/mL (≈ 153 µM); in assay [2] it was 13.6 µg/mL (≈ 29.4 µM).

As to `O=C(Nc1ccc(OC(F)(F)F)cc1)N1CC(c2ccc3cc(Cl)ccc3n2)C(c2ccc(Cl)cc2)=N1` (stereo not drawn) [O, 3-(4-Chlorophenyl)-4-(6-chloro-2-quinolinyl)-4,5-dihydro-N-(4-trifluoromethoxyphenyl)-1H-pyrazole-1-carboxamide], the LC50 in assay [1] and in assay [2] was above 200 µg/mL each time.
